# Experimental data from patent US9701646B2, “Small molecule inhibitors of PI3-kinase signaling” (Tufts University, priority 2013, dated 2017).
# Read-outs that look alike come from different tables or passages of the source.
# Assays:
# [1] = mouse, in vivo
# [2] = target: Akt PH domain (Homo sapiens, UniProt P31749); experiment: Inhibition of Akt PH domain binding to PIP3; settings: in vitro
# [3] = Micellar drug release by dialysis; assay type: physicochemical; settings: 37° C., 1×PBS pH 7.4, after 48 h
# Procedure: Drug-loaded micelles were analyzed for their in vitro drug release profile at 37° C. in 1×PBS pH 7.4 over 48 hrs. Micelles were prepared as described previously. 500 μL of drug-loaded micelles were aliquoted into Spectra/Pro® regenerated cellulose dialysis membranes with a MWCO of 1,000 Da and dialyzed against a large excess of 1×PBS pH 7.4. At predetermined times, dialysis bags were opened and aliquots of sample were taken and diluted with 200 μL acetonitrile. Drug concentration was determined by HPLC using previously described methods.
# [4] = test system: A2780 cells; experiment: In vitro wound closure (cell migration), A2780; assay type: cell-based, human; settings: A2780, up to 76 h
# Procedure: A2780 cells and T47D cells were grown to confluence in separate cultures under conditions of 37° C., 5% CO2, and complete medium. At time zero, a pipette tip was dragged across the cells, producing a linear defect in the confluent layer of cells. Medium was then supplemented with various concentrations of DM-PIT-1, YK-NCL-176, or YK-NCL-240, or an equivalent volume of DMSO alone, and cells were maintained in culture for an additional 76 h. Linear defects were viewed with a microscope at 0, 21, 47, 69, and 76 h following addition of test agent, and the width of the defect was quantitated at each time point. This in vitro assay represents a model of wound closure.
# [5] = test system: U87MG human glioblastoma cells; experiment: Cell viability of U87MG cells, ATP assay; assay type: cell-based; settings: for EC50: Homo sapiens, U-87 MG, 24 h
# Procedure: U87MG human glioblastoma cells were maintained in culture at 37° C., 5% CO2, complete medium for 24 h in the presence of various final concentrations of YK-NCL-176, YK-NCL-177, YK-NCL-178, YK-NCL-179, YK-NCL-180, YK-NCL-183, YK-NCL-184, YK-NCL-185, YK-NCL-186, YK-NCL-187, YK-NCL-188, YK-NCL-189, YK-NCL-190, YK-NCL-191, YK-NCL-192, YK-NCL-193, YK-NCL-194, YK-NCL-195, YK-NCL-196, YK-NCL-197, NK-YCL-198, or YK-NCL-199, each in DMSO, with or without 1 μg/mL TRAIL. DMSO alone was used as a negative control. Following the incubation, cell viability was measured using an ATP assay.
# [6] = test system: A2780 human ovarian cancer cells; experiment: Cell viability of A2780 cells, ATP assay; assay type: cell-based; settings: for concentration at which cell viability was reduced by at least 50 percent / cell viability in combination with TRAIL / EC50: A2780, 24 h; for concentration at which cell viability was reduced by at least 50 percent: alone; for cell viability in combination with TRAIL: versus compound alone; for EC50: Homo sapiens
# Procedure: (§1) A2780 human ovarian cancer cells were maintained in culture at 37° C., 5% CO2, complete medium for 24 h in the presence of various final concentrations of DM-PIT-1, YK-NCL-176, YK-NCL-198, or NK-YCL-240, each in DMSO, with or without 1 μg/mL TRAIL. DMSO alone was used as a negative control. Following the incubation, cell viability was measured using an ATP assay.
# as §1, with “YK-NCL-217, YK-NCL-218, NK-YCL-219, YK-NCL-220, YK-NCL-234,” for “YK-NCL-176, YK-NCL-198,”, “YK-NCL-241,” for “NK-YCL-240,”
# [7] = test system: DU145 human prostate cancer cells; experiment: Cell viability of DU145 cells; assay type: cell-based
# [8] = test system: A2780 ovarian carcinoma; experiment: A2780 cell viability, CellTiter-Blue, free and micellar formulations; assay type: cell-based, human; settings: for cytotoxicity as free compound compared to DM-PIT-1: A2780, 24 h
# Procedure: Cell viability of A2780 ovarian carcinoma was measured using CellTiter-Blue® (Promega, Madison, Wis.) viability assay. Briefly, cells were seeded in 96-well plates according to proper cell densities (3,000-5,000 cells). After 24 h incubation in 5% CO2 at 37° C., cells were treated with formulations at various concentrations for 24 h in serum complete media. After 24 h treatment, media was removed, the wells were washed with serum complete media and replaced with 50 μL media and 10 μL CellTiter-Blue®. Cell viability was evaluated after 4 h of incubation at 37° C. at 5% CO2 by measuring the fluorescence (ex. 550 nm, em. 590 nm) using a Synergy HT multi-detection microplate reader (Biotek, Winooski, Vt.).
# [9] = test system: T47D human breast cancer cells; experiment: Cell viability of T47D cells; assay type: cell-based
# [10] = in DMSO, without TRAIL, read-out: EC50 alone
# [11] = with 1 μg/mL TRAIL, read-out: EC50 with TRAIL
# Akt PH domain, sequence (P31749 5-108 limits assumed): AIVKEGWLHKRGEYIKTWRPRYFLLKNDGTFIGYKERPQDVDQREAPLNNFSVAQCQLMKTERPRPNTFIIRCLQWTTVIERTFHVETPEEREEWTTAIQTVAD
smiles,measurement,setting,value
"O=C(c1cc(C(F)(F)F)cc(C(F)(F)F)c1)c1cn(-c2cc(Cl)ccc2O)nn1 [YK-NCL-240, (3,5-Bis(trifluoromethyl)phenyl)(1-(5-chloro-2-hydroxyphenyl)-1H-1,2,3-triazol-4-yl)methanone]",non-toxic dose,[1],up to 50 mg/kg
same,binding of the Akt PH domain to PIP3,[2],robustly inhibited
same,drug released from micelles,[3],60%
same,inhibition of cell migration (wound closure),[4],significantly more effectively than either DM-PIT-1 or YK-NCL-176
same,effect of combination with TRAIL on cell viability,[5]; 1 μg/mL TRAIL,synergistic effect
same,in vitro cell viability,"[5]; in DMSO, alone",reduce in vitro cell viability
same,concentration at which cell viability was reduced by at least 50 percent,[6],< 6.25 µM
same,cell viability in combination with TRAIL,[6]; with 1 μg/mL TRAIL,further reduced cell viability
same,improvement of EC50 compared to DM-PIT-1 alone,"[6]; A2780, alone",15 fold
same,improvement of EC50 compared to the combination of DM-PIT-1 and TRAIL,"[6]; A2780, with TRAIL",20 fold
same,EC50,[6]; [10],1.85 µM
same,EC50,[6]; [11],1.11 µM
same,effect of combination with TRAIL on cell viability,"[7]; DU145, 1 μg/mL TRAIL",synergistic effect
same,in vitro cell viability,"[7]; DU145, in DMSO, alone",reduce in vitro cell viability
same,cytotoxicity as free compound compared to DM-PIT-1,[8],improved cytotoxicity properties
same,cytotoxicity on addition of TRAIL to the formulation,"[8]; A2780, micellar formulation plus TRAIL",markedly increased cytotoxicity
same,effect of combination with TRAIL on cell viability,[9]; 1 μg/mL TRAIL,synergistic effect
same,in vitro cell viability,"[9]; in DMSO, alone",reduce in vitro cell viability
"Oc1ccc(Cl)cc1-n1cc(C(O)(c2cc(C(F)(F)F)cc(C(F)(F)F)c2)c2cn(-c3cc(Cl)ccc3O)nn2)nn1 [YK-NCL-198, 2,2′-(((3,5-Bis(trifluoromethyl)phenyl)(hydroxy)methylene)bis(1H-1,2,3-triazole-4,1-diyl))bis(4-chlorophenol)]",melting point,,214 °C
same,drug released from micelles,[3],40%
same,EC50,[5]; [10],34.8 µM
same,EC50,[5]; [11],18.8 µM
same,concentration at which cell viability was reduced by at least 50 percent,[6],12.5 µM
same,cell viability in combination with TRAIL,[6]; with 1 μg/mL TRAIL,further reduced cell viability
same,cytotoxicity as free compound compared to DM-PIT-1,[8],improved cytotoxicity properties
